Laboratory results as given in US20210161880A1, “METHODS FOR TREATING DEMENTIA RELATED PSYCHOSIS” (ACADIA Pharmaceuticals Inc., priority 2019, published 2021).

Tests used:
Assay type in all cases: in vivo, human
[1] = tested on: patients with dementia related psychosis; assay: Open-label period of relapse prevention study of pimavanserin; conditions: for patients meeting response criteria: ≥30% reduction on SAPS-H+D total score and CGI-I score of 1 or 2
Procedure: (§1) A double-blind, placebo-controlled study of the efficacy and safety of pimavanserin was conducted to evaluate relapse prevention in patients with dementia related psychosis. The primary endpoint of this study was time from randomization to relapse in the double-blind period. The secondary endpoint of this study was time from randomization to discontinuation from the double-blind period for any reason.
Male or female patients ≥50 and ≤90 years of age were eligible if they met the criteria for All-cause Dementia according to NIA-AA guidelines. Eligible patients met the clinical criteria for one of the following disorders, with or without cerebrovascular disease (CVD): Dementia associated with Parkinson's disease; Dementia with Lewy bodies; Possible or probable Alzheimer's disease; Frontotemporal degeneration spectrum disorders, including possible or probable behavioral variant frontotemporal dementia, progressive supranuclear palsy, or corticobasal degeneration; or Vascular dementia, including post-stroke dementia, multi-infarct dementia and/or subcortical ischemic vascular dementia (SIVD). […] In addition, eligible patients had all of the following scores at Visit 1 (Screening) and Visit 2 (open-label Baseline): SAPS-H+D total score ≥10; CGI-S ≥4 (moderately ill); and SAPS-H+D global item (H7 or D13) score ≥4 (marked). Patients with a known personal or family history or symptoms of long QT syndrome were excluded.
(§2) The study consisted of a screening period of up to 4 weeks (3-28 days); an open-label period of 12 weeks; a double-blind period of up to 26 weeks; and an approximately 4-week safety follow-up period.
During the open-label period, patients started pimavanserin 34 mg once daily (QD) by mouth beginning at Week 0 (open-label Baseline). Pimavanserin was continued daily at this dose level for at least the first week of treatment. After the first week, if the patient was unable to tolerate the 34 mg dose, the dose was decreased to 20 mg (provided as two 10 mg tablets) at any study visit (scheduled or unscheduled) until Week 4 (Visit 4). If the dose was decreased to 20 mg it may later be increased to 34 mg based on investigator judgment at any study visit (scheduled or unscheduled) until Week 4 (Visit 4). After Week 4 (Visit 4), the dose of study drug remained fixed at either 34 mg or 20 mg once daily.
The response criteria was ≥30% reduction from open-label baseline on SAPS-H+D total score and CGI-I score of 1 or 2. Analysis was restricted to eligible patients at the visit. A patient was eligible for the visit if the number of days between minimum (study discontinuation date, end of treatment date) and the first open-label dose exceeded the lower limit of the analysis visit window for the visit.

[2] = tested on: patients with dementia related psychosis; assay: Double-blind, placebo-controlled period: relapse and all-cause discontinuation; conditions: for Hazard Ratio, relapse / Odds ratio, relapse: vs placebo
Procedure: as §1, §2
Randomization occurred at the double-blind Baseline visit (Week 12). Patients were randomly assigned 1:1 to continue their pimavanserin dose (34 mg or 20 mg) or matching placebo. Randomization was stratified by most likely dementia subtype or most prominent cause of dementia (Alzheimer's disease or frontotemporal dementia spectrum disorders, vascular dementia, or Parkinson's disease dementia or dementia with Lewy bodies) and by region.
Relapse criteria were assessed weekly for the first 2 weeks after randomization (Weeks 13 and 14), every 2 weeks until Week 26, and every 4 weeks through Week 38. Relapse criteria was also evaluated at unscheduled visits. Any patients who met any of the relapse criteria after randomization were withdrawn from study drug and entered the safety follow-up period of the study.

[3] = tested on: patients with dementia related psychosis; assay: Safety and tolerability (MMSE, long-term tolerability)
Procedure: Safety and tolerability of pimavanserin was also evaluated compared to placebo in patients with dementia related psychosis who have been stabilized on pimavanserin therapy. Safety endpoints were: treatment-emergent adverse events (TEAEs); serious adverse events (SAEs); withdrawals due to adverse events (AEs); clinically important changes in other safety assessments; Global Clinician Assessment of Suicidality (GCAS) score; Mini-Mental State Examination (MMSE) score; and Extrapyramidal Symptom Rating Scale (ESRS) score.

[4] = open-label period, Overall N = 351

CC(C)COc1ccc(CNC(=O)N(Cc2ccc(F)cc2)C2CCN(C)CC2)cc1 [pimavanserin, N-(4-Fluorophenylmethyl)-N-(1-methylpiperidin-4-yl)-N′-(4-(2-methylpropyloxy)phenylmethyl)carbamide]
psychosis (total SAPS-H+D change), exploratory analysis ([1]; across subtypes of dementia, baseline MMSE, baseline dementia severity, FIGS. 4A-C): substantially reduced psychosis
patients meeting response criteria ([1]; by Week 4, FIG. 2A): about 50%
patients meeting response criteria ([1]; by Week 8, FIG. 2B): about 70%
total SAPS-H+D reduction in change from open-label baseline ([1]; by Week 12, FIG. 1): 75.2%
CGI-S score reduction from baseline ([1]; by Week 12, overall population and across subtypes of dementia, FIG. 5A, 5B): about 2
response rate across subgroups ([1]; dementia subtypes, baseline MMSE, age, psychosis severity, FIG. 2C-2F): consistently high response rate
patients demonstrating sustained response ([1]; open label period): > 60%
Early Termination: Adverse Event, (%) ([1]; open-label period, AD N = 229): (7.9) %
Early Termination: Lack of Response in Open Label, (%) ([1]; open-label period, AD N = 229): (20.1) %
Randomized to Double-blind Period, (%) ([1]; open-label period, AD N = 229): (59.8) %
Early Termination: Adverse Event, (%) ([1]; open-label period, DLB N = 22): (4.5) %
Early Termination: Lack of Response in Open Label, (%) ([1]; open-label period, DLB N = 22): (40.9) %
Randomized to Double-blind Period, (%) ([1]; open-label period, DLB N = 22): (45.5) %
Early Termination: Adverse Event, (%) ([1]; open-label period, FTD N = 6): (16.7) %
Early Termination: Lack of Response in Open Label, (%) ([1]; open-label period, FTD N = 6): (33.3) %
Randomized to Double-blind Period, (%) ([1]; open-label period, FTD N = 6): (50) %
Early Termination: Adverse Event, (%) [1, 4]: (7.7) %
Early Termination: Adverse Event, Number [1, 4]: 27
Early Termination: Death, (%) [1, 4]: (0.3) %
Early Termination: Death, Number [1, 4]: 1
Early Termination: Lack of Response in Open Label, (%) [1, 4]: (19.9) %
Early Termination: Lack of Response in Open Label, Number [1, 4]: 70
Randomized to Double-blind Period, (%) [1, 4]: (61.8) %
Randomized to Double-blind Period, Number [1, 4]: 217
Early Termination: Adverse Event, (%) ([1]; open-label period, PDD N = 59): (6.8) %
Early Termination: Death, (%) ([1]; open-label period, PDD N = 59): (1.7) %
Early Termination: Lack of Response in Open Label, (%) ([1]; open-label period, PDD N = 59): (15.3) %
Randomized to Double-blind Period, (%) ([1]; open-label period, PDD N = 59): (71.2) %
Early Termination: Adverse Event, (%) ([1]; open-label period, VaD N = 35): (8.6) %
Early Termination: Lack of Response in Open Label, (%) ([1]; open-label period, VaD N = 35): (11.4) %
Randomized to Double-blind Period, (%) ([1]; open-label period, VaD N = 35): (71.4) %
Incidence of relapse, (%) ([2]; AD): 13.1%
Incidence of relapse, n/N ([2]; AD): 8/61
Hazard Ratio, relapse ([2]; AD): 0.618
Odds ratio, relapse ([2]; AD): 0.5175
Hazard Ratio (Pimavanserin/Placebo), relapse ([2]; Cox regression, 95% CI (0.172, 0.727), one-sided p 0.0023): 0.353
Hazard Ratio (Pimavanserin/Placebo), all-cause discontinuation ([2]; Cox regression, 95% CI (0.261, 0.785), one-sided p 0.0024): 0.452
Incidence of relapse, (%) ([2]; DLB): 0.0%
Incidence of relapse, n/N ([2]; DLB): 0/6
Incidence of relapse, (%) ([2]; FTD): 100%
Incidence of relapse, n/N ([2]; FTD): 1/1
Incidence of relapse, (%) ([2]; Overall): 12.6%
Incidence of relapse, n/N ([2]; Overall): 12/95
Hazard Ratio, relapse ([2]; Overall): 0.353
Odds ratio, relapse ([2]; Overall): 0.3666
Incidence of relapse, (%) ([2]; PDD): 6.7%
Incidence of relapse, n/N ([2]; PDD): 1/15
Hazard Ratio, relapse ([2]; PDD): 0.054
Odds ratio, relapse ([2]; PDD): 0.0714
Incidence of relapse, (%) ([2]; VaD): 16.7%
Incidence of relapse, n/N ([2]; VaD): 2/12
Hazard Ratio, relapse ([2]; VaD): 1.065
Odds ratio, relapse ([2]; VaD): 1.00
reduction of risk of relapse of dementia related psychosis (psychotic exacerbation) compared to placebo ([2]; double-blind period, FIG. 6): 2.8 times
reduction of risk of all-cause discontinuation compared to placebo ([2]; double-blind period, FIG. 7): 2.2 ×
Completed Week 26 Without a Relapse, (%) ([2]; double-blind period, N = 95): 38.9%
Number of Patients Discontinued for Any Reason, (%) ([2]; double-blind period, N = 95): 22.1%
Number of Patients Having a Relapse Event, (%) ([2]; double-blind period, N = 95): 12.6%
patients on placebo more likely to drop out of the trial for any reason ([2]; placebo vs pimavanserin): 2.2 times
tolerability ([3]; 34 mg, given long term in the elderly population): well tolerated
impact on cognition (MMSE) ([3]; over 9 months of treatment, FIG. 8): no negative impact
